Assay results from paper PMC5447021, “TNF Lectin-Like Domain Restores Epithelial Sodium Channel Function in Frameshift Mutants Associated with Pseudohypoaldosteronism Type 1B” (Frontiers in Immunology, 2017).
Entries after “also recorded” stand apart in the source; their conditions may differ. Marks after values point to notes of the source that are not given here.

What was measured:
βγ-ENaC = assay: Whole-cell patch clamp, WT βγ-ENaC; type: cell-based, human; settings: HEK-293, 200 nM solnatide, n = 3
Description: HEK-293 cells were transfected 1 day after cell seeding using X-tremeGENE HP DNA transfection reagent (Roche Diagnostics, Mannheim, Germany) according to the manufacturer’s protocol. A set of WT or mutant αβγ- or δβγ-hENaC, or α-, β-, γ-, or δ-hENaC alone was used, and the ratio of DNA to transfection reagent was 1:3. The expression was highest 48–72 h after transfection.
Electrophysiological experiments were performed as described in detail by Shabbir et al. ([16]). […] Currents were recorded with the patch clamp method in the whole-cell mode. The chamber contained 1 ml of the bath solution of the following composition (in mM): 145 NaCl, 2.7 KCl, 1.8 CaCl2, 2 MgCl2, 5.5 glucose, and 10 HEPES, adjusted to pH 7.4 with 1 M NaOH solution. Micropipettes were pulled from thin-walled borosilicate glass capillaries (Harvard Apparatus, Holliston, MA, USA) with a DMZ Zeitz Puller to obtain electrode resistances ranging from 2 to 5 MΩ. The pipette solution contained (in millimolars): 135 potassium methane sulfonate, 10 KCl, 6 NaCl, 1 Mg2ATP, 2 Na3ATP, 10 HEPES, and 0.5 EGTA, adjusted to pH 7.2 with 1 M KOH solution. Chemicals for pipette and bathing solutions were supplied by Sigma-Aldrich (Vienna, Austria). Electrophysiological measurements were carried out with an Axopatch 200B patch clamp amplifier (Axon Instruments, CA, USA). […]

αP197fs = assay: Membrane abundance of αP197fs; type: cell-based, human; settings: 200 nM, relative to WT control (=1), own control 1.18 ± 0.05, p < 0.01 vs control
Description: (§1) Cell surface biotinylation was performed as previously described ([26]). In brief, A549 cells or transiently transfected HEK-293 cells were grown in 10 cm dishes in 37°C, 5% CO2 incubator in DMEM medium supplemented with 5% FBS. […] Medium was aspirated, and then cells were washed twice with 10 ml ice-cold phosphate-buffered saline (PBS), covered with 2.5 mg EZ-Link Sulfo-NHS-SS-Biotin (Thermo Scientific, Rockford, USA), dissolved in 10 ml ice-cold PBS, and incubated at 4°C with gentle agitation for 30 min. Fifty milliliters of quenching solution were added to cells; then cells were scraped in solution and transferred to fresh 50 ml tube. Cell suspension was centrifuged at 500 × g for 3 min. Supernatant was discarded, and 5 ml of Tris-buffered saline (TBS) was added to the cell pellet. The cell pellet was resuspended and centrifuged at 500 × g for 3 min. Supernatant was discarded and cell pellet was resuspended in lysis buffer containing protease inhibitor cocktail (10 µM pepstatin A, 10 µM phenylmethylsulfonyl fluoride, and 10 µM leupeptin) and transferred to fresh 1.5 ml centrifuge tube. Cell pellet was then homogenized on ice by ultrasonication using 1 s bursts and incubated on ice for at least 30 min. Intact cells and nuclei were pelleted by centrifugation at 10,000 × g for 2 min under cooling conditions. […] Exposed films were scanned and quantified using ImageJ (NIH, MD, USA). […]

αY447fs = assay: Membrane abundance of αY447fs; type: cell-based, human; settings: 200 nM, relative to WT control (=1), own control 1.27 ± 0.10, p < 0.001 vs control
Description: as §1

αT482fs = assay: Membrane abundance of αT482fs; type: cell-based, human
Description: Cell surface biotinylation was performed as previously described ([26]). In brief, A549 cells or transiently transfected HEK-293 cells were grown in 10 cm dishes in 37°C, 5% CO2 incubator in DMEM medium supplemented with 5% FBS. […] Medium was aspirated, and then cells were washed twice with 10 ml ice-cold phosphate-buffered saline (PBS), covered with 2.5 mg EZ-Link Sulfo-NHS-SS-Biotin (Thermo Scientific, Rockford, USA), dissolved in 10 ml ice-cold PBS, and incubated at 4°C with gentle agitation for 30 min. Fifty milliliters of quenching solution were added to cells; then cells were scraped in solution and transferred to fresh 50 ml tube. Cell suspension was centrifuged at 500 × g for 3 min. Supernatant was discarded, and 5 ml of Tris-buffered saline (TBS) was added to the cell pellet. The cell pellet was resuspended and centrifuged at 500 × g for 3 min. Supernatant was discarded and cell pellet was resuspended in lysis buffer containing protease inhibitor cocktail (10 µM pepstatin A, 10 µM phenylmethylsulfonyl fluoride, and 10 µM leupeptin) and transferred to fresh 1.5 ml centrifuge tube. Cell pellet was then homogenized on ice by ultrasonication using 1 s bursts and incubated on ice for at least 30 min. Intact cells and nuclei were pelleted by centrifugation at 10,000 × g for 2 min under cooling conditions. Pellet was then discarded and supernatant was transferred to fresh tube, incubated overnight with 0.5 ml NeutrAvidin Agarose under gentle rotation at 4°C and centrifuged at 500 × g for 5 min under cooling conditions. Supernatant was then discarded and the pellet washed twice with 200 µl lysis buffer. The biotinylated proteins were eluted with 100 µl sodium dodecyl sulfate (SDS) sample buffer (62.5 mM Tris, pH 6.8, 1% SDS, 10% glycerine, 50 mM dithiothreitol) containing 10 µM E64 at 65°C for 10 min. Sample was then centrifuged at 500 × g for 2 min. Pellet was discarded and supernatant subjected to protein electrophoresis and immunoblotting. The biotinylated proteins were separated under reducing conditions by SDS-PAGE using 7.5% SDS gel along with prestained protein marker (cat. #12949 from Cell Signaling). Proteins were then transferred onto a nitrocellulose membrane (UltraCruzTM […], Santa Cruz Biotechnology, TX, USA) by semi-dry blotting at 25 V for 30 min. Unspecific binding sites were blocked by incubating the membrane overnight at 4°C with 3% FBS in PBS supplemented with 0.02% sodium azide. Membrane was then incubated for 90 min with primary antibody (anti-α-hENaC, anti-δ-hENaC, and anti-β-actin from Sigma Aldrich; anti-β- and anti-γ-hENaC from Santa Cruz Biotechnology). Membrane was washed 5× with 10 ml PBS containing 0.1% Tween-20 (PBST), and corresponding horseradish peroxidase-conjugated secondary antibodies (Santa Cruz Biotechnology) were applied. After 90-min incubation, membrane was washed 3× with PBST and once with PBS. Enhanced chemiluminescence (ECL) substrate (Amersham ECL Plus Western Blotting Detection Reagent, GE Healthcare, Vienna, Austria) was used for visualization. Following incubation for 2 min, membranes were exposed to X-ray films (Amersham Hyperfilm ECL, GE Healthcare). Exposed films were scanned and quantified using ImageJ (NIH, MD, USA).
To study α-ENaC protein abundance in plasma membrane cell surface, biotinylation of HEK-293 cells transiently transfected with WT or different PHA1B mutants was followed by SDS-PAGE and immunoblotting. Expression of frameshift mutants varied markedly. […]

ENaC PHA1B point mutants = settings: PHA1B point mutants with WT subunits; cited from earlier work
Excerpt: PHA1B is a very rare inherited disease caused by mutations in the genes encoding the α (SCNN1A), β (SCNN1B), or γ (SCNN1G), subunit of ENaC, resulting in defective transepithelial sodium transport ([28]). […] Loss-of-function mutations in ENaC genes translate into the salt-wasting genetic disease PHA1B ([33], [41]). […] Remarkably, amiloride-sensitive currents were restored ...

γ-ENaC = settings: HEK-293, 5 and 10 min; cited from earlier work

C[C@@H]1NC(=O)CNC(=O)[C@H](CCC(=O)O)NC(=O)[C@@H]2CCCN2C(=O)[C@H]([C@@H](C)O)NC(=O)[C@H](CCC(=O)O)NC(=O)[C@H](CCCNC(=N)N)NC(=O)[C@H](CCC(N)=O)NC(=O)CNC(=O)[C@@H](N)CSSC[C@@H](C(=O)O)NC(=O)[C@H](Cc2ccc(O)cc2)NC(=O)[C@H](Cc2c[nH]c3ccccc23)NC(=O)[C@@H]2CCCN2C(=O)[C@H](CCCCN)NC(=O)[C@H](C)NC(=O)[C@H](CCC(=O)O)NC1=O [solnatide, L-cysteine, L-cysteinylglycyl-L-glutaminyl-L-arginyl-L-α-glutamyl-L-threonyl-L-prolyl-L-α-glutamylglycyl-L-alanyl-L-α-glutamyl-L-alanyl-L-lysyl-L-prolyl-L-tryptophyl-L-tyrosyl-, cyclic (1→17)-disulfide]
Effect of solnatide on current (words) (βγ-ENaC): small current increase in WT βγ-ENaC; also recorded: can activate βγ-ENaC marginally
Membrane abundance, solnatide 5 min (αP197fs): 1.33 ± 0.07
Membrane abundance, solnatide 5 min (αY447fs; 5 min): 1.57 ± 0.13
Membrane abundance, solnatide 10 min (αY447fs; 10 min): 1.89 ± 0.16
Membrane abundance (αT482fs; glycosylated αT482fs, 200 nM solnatide, 5 min, n = 4): even more after 5 min of solnatide treatment
Increase in membrane abundance after PNGase F (αT482fs; αT482fs, 200 nM solnatide, 100 units PNGase F, n = 4): completely abolished in deglycosylated mutants; also recorded: after PNGase F treatment no differences can be observed
Membrane abundance after solnatide (αT482fs; αT482fs, HEK-293, discussion, no time stated): the membrane abundance increasing even further following exposure to solnatide
Membrane abundance, solnatide 5 min (αT482fs; αT482fs, 200 nM, 5 min, relative to WT control (=1), own control 4.67 ± 0.27, p < 0.001 vs control, n = 4): 6.23 ± 0.24***
Membrane abundance, solnatide 10 min (αT482fs; αT482fs, 200 nM, 10 min, relative to WT control (=1), own control 4.67 ± 0.27, n = 4): 4.58 ± 0.30
Restoration of amiloride-sensitive currents (ENaC PHA1B point mutants): restored to WT control levels; also recorded: restoring current levels in these mutant ENaC-expressing cells to WT levels or even higher
Membrane abundance, solnatide (γ-ENaC): only slight
